# In patent US11542304B2, “Multimeric bicyclic peptide ligands” (BicycleTx Limited, priority 2018, dated 2023):
# Experiments:
# [1] = tested on: MC38 syngeneic tumors; experiment: In vivo efficacy in MC38 syngeneic tumors in C57BL/6J B-h4-1BB humanized mice; conditions: 20 or 30 mg/kg i.v. QAD × 6; compared to CD137 monoclonal antibody agonist; FIG. 7
# Description: The MC38 murine colon carcinoma cell line was purchased from Shunran Shanghai Biological Technology Co., Ltd. The cells will be maintained in vitro as monolayer culture in Dulbecco's Modified Eagle's medium (DMEM) supplemented with 10% heat inactivated fetal calf serum, 100 U/mL penicillin and 100 μg/mL streptomycin at 37° C. in an atmosphere of 5% CO2. The tumor cells will be routinely subcultured twice weekly by trypsin-EDTA treatment. Cells growing in an exponential growth phase will be harvested and counted for tumor inoculation. 6-8 week old female C57BL/6J B-h4-1BB humanized mice were subcutaneously injected (in the flank) with MC38 tumor cells (5×10^5) with 0.1 mL PBS for tumor development. Tumor-bearing animals were randomly enrolled into six study groups when the mean tumor size reached approximately 113 mm^3 (Study 1) or 107 mm^3 (Study 2). The test and positive control articles were administrated to the tumor-bearing mice according to predetermined regimens as shown below.
# Test articles were formulated in aqueous vehicle (25 mM Histidine, 10% sucrose pH=7) and administered intravenously or intraperitoneally. CD137 monoclonal antibody agonist was administered by intraperitoneal injection in 0.9% saline.
# Tumor volume was measured three times a week in two dimensions using a caliper, and the volume was expressed in mm3 using the formula: V=0.5a×b2 where a and b were the long and short diameters of the tumor, respectively. Results are represented by mean and the standard deviation (Mean±SD).
# In study 2, mice were sacrificed 21 days after treatment initiation and tumors were harvested for T-cell analysis by flow cytometry. Tumor were cut into small pieces and filtered through a 70 micrometer filter. Lymphocytes were isolated using Histopaque 1083 and resuspended in RPMI 1640 supplemented with 10% fetal bovine serum. Lymphocytes were stained with a cell viability dye (Zombie NIR, Biolegend, #423106) and a panel of antibodies including anti-mouse CD45 (Biolegend, #103138), anti-mouse CD3 (Biolegend, #100328), anti-mouse CD4 (Biolegend, #100438), anti-mouse CD8 (Biolegend, #100759). Stained cells were analysed by Attune N×T Flow Cytometer. T-cell results are expressed as % of CD3+ cells among CD45+ cells. CD8+ T-cell results are expressed as % of CD8+ cells among CD45+CD3+ cells. CD4+ T-cell results are expressed as % of CD4+ cells among CD45+CD3+ cells. Results are represented by mean and the standard deviation (Mean±SD) and the individual values.
# Statistical analysis: Data was analyzed using 2way ANOVA or ordinary One-way ANOVA with Dunnett's test for multiple comparisons, and P<0.05 was considered to be statistically significant. Both statistical analysis and biological observations are taken into consideration. ***p<0.001, **p<0.01, *p<0.05.
# [2] = tested on: Pan T-cells (isolated from human PBMCs); experiment: T-cell cytokine release assay; assay type: cell-based; conditions: anti-CD3 stimulated T cells, 48 hours; FIG. 14
# Description: Healthy human buffy coat was purchased from the Sylvan N. Goldman Oklahoma Blood Institute and shipped fresh. Peripheral blood mononuclear cells (PBMCs) were isolated by Ficoll density gradient centrifugation. Red blood cells were lysed with ACK (Ammonium-Chloride-Potassium) lysis buffer. Pan T-cells were then isolated from total PBMCs using negative magnetic bead selection (Miltenyi MACS human Pan-T cell isolation kit). Pan T-cells were then plated on anti-CD3 coated 96-well plates (0.5 μg/mL) in culture media (RPMI1640 with 10% FBS) plus or minus compounds. Supernatant from cultures was collected after 24 and 48 hours. Cytokine [i.e., interleukin-2 (IL-2), interferon gamma (IFNγ)] release in supernatant was measured by HTRF assay (CisBio) according to the kit's instructions. HTRF assay plates were read on a Clariostar plate reader (BMG Labtech) at 665 nm and 620 nm. Data was analyzed and extrapolated to a standard curve according to the HTRF kit instruction in Prism and Excel. Cytokine release fold change was calculated by dividing the pg/mL of cytokine detected by background cytokine released (CD3 stimulation alone). Data was graphed in Prism as the mean of replicates with standard deviation error bars.
# [3] = target: T1, CD137 (Homo sapiens, UniProt Q07011); experiment: CD137 reporter cell activity washout assay; assay type: cell-based; set-up: host or cells: Jurkat cells; conditions: 10 nM, exposure 30, 60 or 120 minutes, total 6 hours; FIG. 13
# T1 sequence (Q07011 24-255): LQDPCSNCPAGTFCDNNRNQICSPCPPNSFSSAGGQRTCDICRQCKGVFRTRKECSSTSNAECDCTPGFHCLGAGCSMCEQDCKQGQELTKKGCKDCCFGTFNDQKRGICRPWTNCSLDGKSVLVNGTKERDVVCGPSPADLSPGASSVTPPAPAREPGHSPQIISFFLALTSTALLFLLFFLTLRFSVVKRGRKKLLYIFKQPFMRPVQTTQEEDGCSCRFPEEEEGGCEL
# Description: Jurkat cells engineered to overexpress CD137 and express a luciferase gene under the NF-κB promoter were purchased from Promega. The reporter cells were incubated with 10 nM of CD137 agonists for the indicated times at 37° C. in RPMI1640 media with 1% FBS. After either 30, 60, or 120 minutes, cells were washed in an excess of culture media and resuspended in 75 μL of fresh media. A no washout condition was also included. All washout conditions were performed in duplicate. Cells then continued to incubate for a total of 6 hours (an additional 5.5, 5, or 4 hours respective to exposure times). After incubation, 75 μL of Bio-Glo reagent (Promega) was added to each well and allowed to equilibrate for 10 minutes at room temperature. Luminescence was read on the Clariostar plate reader (BMG LabTech). Fold induction was calculated by dividing the luminescence signal by background wells (reporter cells with no agonist added). The percent of the maximum fold induction was calculated by dividing the fold induction of the washout time by the fold induction of the no washout condition and multiplying by 100.
# [4] = Pharmacokinetics of Bicycle multimers in CD-1 mice; conditions: 5 mg/kg IV, male CD-1 mice; FIGS. 5A and 5B
# Description: Male CD-1 mice were dosed with 5 mg/kg of each Bicycle multimer formulated in 25 mM Histidine HCl, 10% sucrose pH 7 via tail vein injection. Serial bleeding (about 80 μL blood/time point) was performed via submandibular or saphenous vein at each time point. All blood samples were immediately transferred into prechilled microcentrifuge tubes containing 2 μL K2-EDTA (0.5M) as anti-coagulant and placed on wet ice. Blood samples were immediately processed for plasma by centrifugation at approximately 4° C., 3000 g. The precipitant including internal standard was immediately added into the plasma, mixed well and centrifuged at 12,000 rpm, 4° C. for 10 minutes. The supernatant was transferred into pre-labeled polypropylene microcentrifuge tubes, and then quick-frozen over dry ice. The samples were stored at 70° C. or below as needed until analysis. 7.5 μL of the supernatant samples were directly injected for LC-MS/MS analysis using an Orbitrap Q Exactive in positive ion mode to determine the concentrations of Bicycle multimer. Plasma concentration versus time data were analyzed by non-compartmental approaches using the Phoenix WinNonlin 6.3 software program. C0, Cl, Vdss, T1/2, AUC(0-last), AUC(0-inf), MRT(0-last), MRT(0-inf) and graphs of plasma concentration versus time profile were reported.
# [5] = tested on: melanoma patient tumour samples; experiment: Ex vivo human tumour cell kill assay (3D spheroid culture); conditions: 48 hours
# Description: Two frozen, dissociated melanoma patient tumour samples were purchased from Folio Conversant. Cells were thawed quickly at 37° C. and pipetted into 10 mL of Wash Medium [DMEM/F12+1× Penicillin/Streptomycin+50 μg/mL Gentamycin+100 μg/mL G418+100 μg/mL Hygromycin+1× Insulin-Transferrin-Selenium (ITS)+10 mM HEPES] with 1 mg/mL DNaseI added fresh. Cell counts were performed using a haemocytometer and a 1:2 dilution with 0.04% Trypan blue. Cells were spun down and resuspended in Growth Medium [EmbryoMax DMEM+10% heat-inactivated FBS+1× Penicillin/Streptomycin+50 μg/mL Gentamycin+1× GlutaMAX+1 mM Sodium pyruvate+1×ITS+0.4% BSA+4.5 g/L glucose+2.3 g/L sodium bicarbonate+10 mM HEPES+10 ng/mL basic fibroblast growth factor (bFGF)+20 ng/mL epidermal growth factor (EGF)] at 5×10^5 cells/mL. Cells were magnetized as described in the N3D Biosciences manufacturer's protocol. Briefly, NanoShuttle (NS) is added at 1 μL to 1×10^4 cells and mixed in by pipetting. […] Flow cytometry panels used in this experiment analysed the number of lymphocytes and tumour cells present on Days 0 and 2. Tumour cell killing was determined by the decrease in the number of CD45 negative cells in the treated wells versus the untreated control (FIG. 12)—significance was calculated using a 2-way ANOVA.
# [6] = target: T1, CD137; experiment: CD137 Promega reporter cell activity assay (NF-κB luciferase in Jurkat cells)
smiles,measurement,setting,value
CCCC[C@@H]1NC(=O)[C@H](Cc2ccc(O)cc2)NC(=O)[C@@H]2CCCN2C(=O)[C@H](CC(=O)O)NC(=O)[C@H](C)NC(=O)[C@H](Cc2ccccc2)NC(=O)[C@@H]2CSCCC(=O)N3CN(CN(C3)C(=O)CCSC[C@@H](C(=O)N[C@@H](C)C(N)=O)NC1=O)C(=O)CCSC[C@H](NC(=O)[C@H](C)NC(C)=O)C(=O)N[C@@H]([C@@H](C)CC)C(=O)N[C@@H](CCC(=O)O)C(=O)N[C@@H](CCCCNC(=O)CCc1cn(CCOCCOCCOCCOCCOCCOCCOCCOCCOCCOCCOCCOCCOCCOCCOCCOCCOCCOCCOCCOCCOCCOCCOCCNC(=O)CCOCC(COCCC(=O)NCCOCCOCCOCCOCCOCCOCCOCCOCCOCCOCCOCCOCCOCCOCCOCCOCCOCCOCCOCCOCCOCCOCCOCCn3cc(CCC(=O)NCCCC[C@@H]4NC(=O)[C@H](CCC(=O)O)NC(=O)[C@H]([C@@H](C)CC)NC(=O)[C@@H](NC(=O)[C@H](C)NC(C)=O)CSCCC(=O)N5CN6CN(C5)C(=O)CCSC[C@H](NC(=O)[C@H](Cc5ccc(O)cc5)NC(=O)[C@H](CCC(N)=O)NC(=O)CNC4=O)C(=O)N[C@@H](Cc4ccccc4)C(=O)N[C@@H](C)C(=O)N[C@@H](CC(=O)O)C(=O)N4CCC[C@H]4C(=O)N[C@@H](Cc4ccc(O)cc4)C(=O)N[C@@H](CCCC)C(=O)N[C@H](C(=O)N[C@@H](C)C(N)=O)CSCCC6=O)nn3)(COCCC(=O)NCCOCCOCCOCCOCCOCCOCCOCCOCCOCCOCCOCCOCCOCCOCCOCCOCCOCCOCCOCCOCCOCCOCCOCCn3cc(CCC(=O)NCCCC[C@@H]4NC(=O)[C@H](CCC(=O)O)NC(=O)[C@H]([C@@H](C)CC)NC(=O)[C@@H](NC(=O)[C@H](C)NC(C)=O)CSCCC(=O)N5CN6CN(C5)C(=O)CCSC[C@H](NC(=O)[C@H](Cc5ccc(O)cc5)NC(=O)[C@H](CCC(N)=O)NC(=O)CNC4=O)C(=O)N[C@@H](Cc4ccccc4)C(=O)N[C@@H](C)C(=O)N[C@@H](CC(=O)O)C(=O)N4CCC[C@H]4C(=O)N[C@@H](Cc4ccc(O)cc4)C(=O)N[C@@H](CCCC)C(=O)N[C@H](C(=O)N[C@@H](C)C(N)=O)CSCCC6=O)nn3)COCCC(=O)NCCOCCOCCOCCOCCOCCOCCOCCOCCOCCOCCOCCOCCOCCOCCOCCOCCOCCOCCOCCOCCOCCOCCOCCn3cc(CCC(=O)NCCCC[C@@H]4NC(=O)[C@H](CCC(=O)O)NC(=O)[C@H]([C@@H](C)CC)NC(=O)[C@@H](NC(=O)[C@H](C)NC(C)=O)CSCCC(=O)N5CN6CN(C5)C(=O)CCSC[C@H](NC(=O)[C@H](Cc5ccc(O)cc5)NC(=O)[C@H](CCC(N)=O)NC(=O)CNC4=O)C(=O)N[C@@H](Cc4ccccc4)C(=O)N[C@@H](C)C(=O)N[C@@H](CC(=O)O)C(=O)N4CCC[C@H]4C(=O)N[C@@H](Cc4ccc(O)cc4)C(=O)N[C@@H](CCCC)C(=O)N[C@H](C(=O)N[C@@H](C)C(N)=O)CSCCC6=O)nn3)nn1)C(=O)NCC(=O)N[C@@H](CCC(N)=O)C(=O)N[C@@H](Cc1ccc(O)cc1)C(=O)N2 [BCY7838],"anti-tumor activity (tumor volume), Study 1",[1],elicits a range of anti-tumor activities
same,"pro-inflammatory cytokine (IL-2, IFNγ) secretion by T-cells",[2],secrete pro-inflammatory cytokines
same,cell activity after washout,[3],maintain cell activity after washout
same,systemic elimination (plasma concentration after IV dosing),[4],retain the property of rapid systemic elimination
same,lymphocyte numbers (live CD45 positive cells),[5]; FIG. 12B,no significant difference between treatments on lymphocyte numbers
same,tumour cell death (live CD45 negative cells),"[5]; in one melanoma patient sample, but not the other, FIG. 12A",significant tumour cell death
same,Average Fold EC50 Improvement relative to CD137L,[6]; Average EC50 for CD137L = 14.2 nM,0.73
same,Average Relative Fold Induction relative to CD137L,[6]; Average fold induction for CD137L = 4.0,2.19
